From US6759413B2, “Use of cox-2 inhibitors as gastroprokinetics” (SmithKline Beecham Corporation, priority 2000, dated 2004)

Columns and labels:
Rats = assay: Rat model of post operative ileus (methylene blue meal transit); type: in vivo; settings: 3 mg/kg intravenous infusion; four hours post-gavage; eight rats; vehicle 49.3±1.3 cm; p<0.05
Procedure: Activity In Vivo: Rat Model of Post Operative Ileus
The selective COX-2 inhibitor 2-(4-ethoxy-phenyl)-3-(4-methanesulfonyl-phenyl)-pyrazolo[1,5-b]pyridazine was evaluated in a rat model of post-operative ileus. The methodology represents a modification of the procedure described by McGill et al, Gastroenterology 116: A1040 (1999).
Rats (fourteen) received 0.5 cc of skimmed milk with methylene blue by gavage. Either vehicle (six rats) or 2-(4-ethoxy-phenyl)-3-(4-methanesulfonyl-phenyl)-pyrazolo[1,5-b]pyridazine (eight rats) was then administered by intravenous infusion. Rats were sacrificed four hours post-gavage and the distance the methylene blue meal traversed the intestine measured. The pylorus was set at 0 cm. With vehicle treatment, the meal traversed 49.3±1.3 cm while with 2-(4-ethoxy-phenyl)-3-(4-methanesulfonyl-phenyl)-pyrazolo[1,5-b]pyridazine (3 mg/kg), the meal traversed 67.8±1.1 cm (p<0.05).

Beagle dogs = assay: Dog model of gastric emptying (solid phase, gamma camera); type: in vivo; settings: po for three days, measured on fourth day after am dosing; cisapride 0.14 mg/kg TID, celecoxib 2.8 mg/kg BID, 8-acetyl compound 1.2 mg/kg BID; FIG. 3
Procedure: Activity In Vivo: Dog Model of Gastric Emptying
Beagle dogs were treated for three days with test agents (po administration): placebo BID; cisapride 0.14 mg/kg TID; celecoxib 2.8 mg/kg BID; or 8-acetyl-3-(4-fluoro-phenyl)-2-(4-methanesulfonyl-phenyl)-imidazo[1,2-a]pyridine 1.2 mg/kg BID. Solid phase gastric emptying was measured on the fourth day following am dosing. The same three animals were used for evaluation of each agent, thus reducing any interanimal variations.
Isotope-labeled solid food was fed to the dogs for their morning meal and animals were then placed under a gamma camera and scans performed over the 24 to 36 hours.

[1] = tested on: strips of canine fundic circular muscle; assay: Smooth muscle in vitro model: fundic circular muscle strips, relaxation/tension change; type: cell-based; settings: 10 μM; n=6-8 strips; FIG. 2
dogs = assay: Dog model of lower esophageal sphincter pressure (LESP); type: in vivo; settings: 3 days treatment, day 4 am dose; cisapride 0.14 mg/kg TID, celecoxib 1.2 mg/kg BID; FIG. 4
Procedure: Activity In Vivo: Dog Model of Lower Esophageal Sphincter Pressure (LESP) Six adult dogs were instrumented with 14 French esophagostomy tubes. Animals were treated for 3 days with placebo (BID), cisapride (0.14 mg/kg TID) or celecoxib (1.2 mg/kg BID). On day 4 dogs received their am dose of test agent and water perfused manometry catheters were inserted through the esophagostomy tubes. Lower esophageal sphincter pressures (LESPs) were then monitored.

[2] = tested on: strips of canine antrum circular muscles; assay: Smooth muscle in vitro model of gastric propulsion: antral circular muscle strips, acetylcholine-induced contraction; type: cell-based; settings: 10 μM test agent; ACh 1 μM; n=4-8 strips; organ bath, Krebs solution; FIG. 1
Procedure: Smooth Muscle in vitro Model of Gastric Propulsion
Agents which stimulate antral smooth muscle activity would be expected to enhance the rate of gastric emptying by propulsion of contents in the aboral direction. By contrast, fundic relaxation could lead to delayed emptying of the stomach as the upper stomach would serve as a reservoir for gastric contents.
The effects of test agents were evaluated on strips of canine antrum circular muscles (n=4-8 strips) suspended in organ baths bathed with Krebs solution. Following establishment of baseline tension, acetylcholine (“ACh”; 1 μM), indomethacin (10 μM), or 8-acetyl-3-(4-fluoro-phenyl)-2-(4-methanesulfonyl-phenyl)-imidazo[1,2-a]pyridine (“8-Acetyl- . . . ”; 10 μM) were applied and tension changes monitored and recorded on a polygraph.

Compound | distance the methylene blue meal traversed the intestine (pylorus = 0 cm) (Rats) | rate of solid phase gastric emptying (Beagle dogs) | relaxation / change in tension of fundic circular muscle [1] | lower esophageal sphincter pressure (LESP) compared to placebo (dogs) | sensitisation of antral circular muscle to acetylcholine-induced contractions [2]
CCOc1ccc(-c2nn3ncccc3c2-c2ccc(S(C)(=O)=O)cc2)cc1 [2-(4-ethoxy-phenyl)-3-(4-methanesulfonyl-phenyl)-pyrazolo[1,5-b]pyridazine] | 67.8±1.1 cm | – | – | – | –
CC(=O)c1cccn2c(-c3ccc(F)cc3)c(-c3ccc(S(C)(=O)=O)cc3)nc12 [8-acetyl-3-(4-fluoro-phenyl)-2-(4-methanesulfonyl-phenyl)-imidazo[1,2-a]pyridine] | – | increased the rate of gastric emptying | only small changes in tension | – | –
COc1cc(N)c(Cl)cc1C(=O)NC1CCN(CCCOc2ccc(F)cc2)CC1OC (stereo not shown) [cisapride] | – | increased the rate of gastric emptying | – | increased LESP | –
COc1ccc2c(c1)c(CC(=O)O)c(C)n2C(=O)c1ccc(Cl)cc1 [indomethacin] | – | – | near complete relaxation | – | enhanced acetylcholine-induced contractions
